The values that follow come from ChEMBL document CHEMBL4819133, “Exploiting the HSP60/10 chaperonin system as a chemotherapeutic target for colorectal cancer” (Bioorg Med Chem, 2021).

Structures are written as SMILES. Bounds are passed on as bounds.

Broadly, the EC50 is the concentration at which the effect is half-maximal. Broadly, the CC50 is the concentration giving 50% cytotoxicity. Broadly, the IC50 is the concentration that gives 50% inhibition.

The test system of one data set is HCT-116. In words: Cytotoxicity against human HCT-116 cells assessed as reduction in cell viability measured after 48 hrs by AlamarBlue assay. The format is functional, cell-based. To be noted: HCT-116, 48 h. Background: The colour change of resazurin is a common sign of viable cells or microbes.
The next data set concerns FHC. The experiment in a line: Cytotoxicity against human FHC cells assessed as reduction in cell viability measured after 48 hrs by AlamarBlue assay. It counts as cell-based.
Data set [1] in a line: Cytotoxicity against human FHs74Int cells assessed as reduction in cell viability measured after 48 hrs by AlamarBlue assay. The format is cell-based.
Data set [2] in a line: Cytotoxicity against human THLE-3 cells assessed as reduction in cell viability measured after 48 hrs by AlamarBlue assay. The format is cell-based. To be noted: THLE-3 cells.
A short description of data set [3]: Cytotoxicity against human HEK293 cells assessed as reduction in cell viability measured after 48 hrs by AlamarBlue assay. It counts as cell-based. The following applies: HEK293 cells.
Data set [4] deals with T1, E. coli GroEL/ES (Escherichia coli, UniProt P0A6F5). The experiment in a line: Inhibition of Escherichia coli GroEL/ES-mediated refolding of the denatured malate dehydrogenase. It counts as protein-complex assay.
Another data set concerns the target HSP60/HSP10 (Homo sapiens, UniProt P10809). The experiment in a line: Inhibition of human mitochondrial HSP60/10-mediated refolding of the denatured malate dehydrogenase. It counts as mitochondria, Mitochondria.
The nature of data set [5]: Inhibition of refolded MDH (unknown origin)-mediated oxidation of NADPH in presence of mesoxalic acid treated with compound after refolding of the denatured enzyme. More on the design: species or system Homo sapiens.
The subject of the next data set is DLD-1. The experiment in a line: Cytotoxicity against human DLD-1 cells assessed as reduction in cell viability measured after 48 hrs by AlamarBlue assay. It counts as functional, cell-based. The following applies: DLD-1, 48 h.
In another data set the test system is HT-29. In words: Cytotoxicity against human HT-29 cells assessed as reduction in cell viability measured after 48 hrs by AlamarBlue assay. The format is functional, cell-based. The following applies: HT-29, 48 h.
Data set [6] concerns the target T1, E. coli GroEL/ES. In words: Inhibition of Escherichia coli GroEL/ES-mediated refolding of the denatured rhodanese. It counts as protein-complex assay.
Data set [7] addresses T2, Thiosulfate sulfurtransferase (Homo sapiens, UniProt Q16762).
T2 sequence (Q16762 whole entry): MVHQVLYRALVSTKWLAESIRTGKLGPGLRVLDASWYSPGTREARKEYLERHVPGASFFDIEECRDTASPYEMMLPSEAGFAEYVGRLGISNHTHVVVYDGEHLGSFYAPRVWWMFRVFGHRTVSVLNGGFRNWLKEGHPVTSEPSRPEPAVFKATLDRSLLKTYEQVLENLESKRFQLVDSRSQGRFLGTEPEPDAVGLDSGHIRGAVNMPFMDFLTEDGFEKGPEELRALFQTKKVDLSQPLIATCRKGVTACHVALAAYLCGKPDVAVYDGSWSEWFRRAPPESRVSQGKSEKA
In words: Inhibition of refolded Rhodanese (unknown origin)-mediated conversion of cyanide to thiocyanate treated with compound after refolding of the denatured enzyme.

Sequence of HSP60/HSP10 (P10809 whole entry): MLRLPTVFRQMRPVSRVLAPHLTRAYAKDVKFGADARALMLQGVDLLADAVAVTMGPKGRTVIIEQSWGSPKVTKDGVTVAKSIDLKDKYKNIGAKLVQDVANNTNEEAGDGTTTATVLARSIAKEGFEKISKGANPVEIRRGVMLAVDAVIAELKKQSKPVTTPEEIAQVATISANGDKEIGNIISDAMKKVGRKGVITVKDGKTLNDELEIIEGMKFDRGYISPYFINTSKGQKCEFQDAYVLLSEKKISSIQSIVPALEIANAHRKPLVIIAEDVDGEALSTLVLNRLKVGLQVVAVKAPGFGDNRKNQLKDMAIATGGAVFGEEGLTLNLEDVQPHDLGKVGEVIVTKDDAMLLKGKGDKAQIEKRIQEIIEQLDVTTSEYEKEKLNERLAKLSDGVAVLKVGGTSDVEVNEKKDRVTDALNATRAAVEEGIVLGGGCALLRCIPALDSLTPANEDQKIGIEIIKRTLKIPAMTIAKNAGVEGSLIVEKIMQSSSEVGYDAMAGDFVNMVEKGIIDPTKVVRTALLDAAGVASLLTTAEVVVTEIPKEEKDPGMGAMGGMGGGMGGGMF
Sequence of HSP60/HSP10 (P61604 whole entry, further chain): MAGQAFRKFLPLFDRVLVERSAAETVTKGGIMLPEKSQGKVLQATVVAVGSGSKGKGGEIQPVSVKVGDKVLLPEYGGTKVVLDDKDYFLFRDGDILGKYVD
T1 sequence (P0A6F5 whole entry, looked up): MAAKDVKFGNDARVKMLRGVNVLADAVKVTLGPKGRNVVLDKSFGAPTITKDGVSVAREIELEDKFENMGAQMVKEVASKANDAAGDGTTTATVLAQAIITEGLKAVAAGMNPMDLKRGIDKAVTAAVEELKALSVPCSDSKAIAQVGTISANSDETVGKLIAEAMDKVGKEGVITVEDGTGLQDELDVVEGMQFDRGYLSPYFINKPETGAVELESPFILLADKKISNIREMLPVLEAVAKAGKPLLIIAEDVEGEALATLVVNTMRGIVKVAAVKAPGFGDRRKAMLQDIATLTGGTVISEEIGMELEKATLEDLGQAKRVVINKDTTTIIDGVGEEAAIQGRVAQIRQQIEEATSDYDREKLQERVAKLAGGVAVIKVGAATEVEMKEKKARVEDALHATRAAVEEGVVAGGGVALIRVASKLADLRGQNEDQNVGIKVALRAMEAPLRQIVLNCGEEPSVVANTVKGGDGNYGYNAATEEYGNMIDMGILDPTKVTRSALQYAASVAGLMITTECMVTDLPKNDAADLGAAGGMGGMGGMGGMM

For `O=S(=O)(Nc1ccc(-c2nc3cc(NS(=O)(=O)c4cccc(C(F)(F)F)c4)ccc3o2)cc1)c1cccc(C(F)(F)F)c1`, in the data set with HCT-116, the EC50 came out at 14 µM. Besides, the CC50 is 56 µM with FHC and greater than 100 µM in data set [1]. The CC50 at 48 h stood at 24 µM in data set [2] and 23 µM in data set [3]. Also, the IC50 against E. coli GroEL/ES [4] was 14 µM; against HSP60/HSP10 it was 54 µM; in data set [5] it was greater than 62.5 µM.
For `O=C(Nc1ccc(Sc2nc3ccccc3s2)cc1)c1cc(Br)cc(Br)c1O`, the EC50 with HCT-116 was 19 µM; in the data set on DLD-1, 20 µM; in the data set with HT-29, 21 µM. Besides, the CC50 stood at 74 µM in the data set on FHC and 75 µM in data set [1]. Besides, the values for the CC50 at 48 h in [2] and in data set [3] were 19 µM and 69 µM, respectively. Besides, the IC50 against E. coli GroEL/ES [4] came to 3.2 µM; at E. coli GroEL/ES [6] it was 2.2 µM; on HSP60/HSP10, 5.9 µM; in [5] it was 6.6 µM.
`O=C(Nc1ccc(Sc2nc3ccccc3s2)cc1)c1cccc(Br)c1O`: the figures for the EC50 with HCT-116, in the data set on DLD-1 and with HT-29 were 8.9 µM, 12 µM and 9.3 µM, respectively. The CC50 amounted to 59 µM with FHC and 75 µM in data set [1]. Besides, the results for the CC50 at 48 h in data set [2] and in data set [3] were 12 µM and 33 µM, respectively. Moreover, the IC50 against E. coli GroEL/ES [4] is 42 µM; on E. coli GroEL/ES [6] it was 37 µM; at HSP60/HSP10, greater than 100 µM; in data set [5], greater than 62.5 µM.
Take `O=S(=O)(Nc1ccc(-c2nc3cc(NS(=O)(=O)c4ccc(Cl)s4)ccc3o2)cc1)c1ccc(Cl)s1`: the EC50 in the data set with HCT-116 stood at 15 µM; in the data set on DLD-1 it was 33 µM; in the data set on HT-29, 33 µM. Moreover, the CC50 worked out at 43 µM in the data set on FHC and 65 µM in [1]. Moreover, the CC50 at 48 h came out at 48 µM in data set [2] and 41 µM in data set [3]. Moreover, the IC50 on E. coli GroEL/ES [4] is 2.8 µM; against HSP60/HSP10, 6.5 µM; in data set [5] it was 57 µM.
Take `O=S(=O)(Nc1ccc(-c2nc3cc(NS(=O)(=O)c4cccc5ccccc45)ccc3o2)cc1)c1cccc2ccccc12`: the EC50 was found to be 20 µM with HCT-116, 34 µM with DLD-1 and 31 µM in the data set on HT-29. Further, the CC50 in data set [1] was 52 µM. The results for the CC50 at 48 h in data set [2] and in data set [3] were 49 µM and greater than 100 µM, respectively. For the same compound, the IC50 against E. coli GroEL/ES [4] was 43 µM; on E. coli GroEL/ES [6], 35 µM; in [5] it was greater than 62.5 µM; in data set [7], greater than 100 µM.
On to `O=S(=O)(Nc1ccc(-c2nc3cc(NS(=O)(=O)c4ccc(Cl)s4)ccc3o2)cc1)c1ccc(Cl)c(C(F)(F)F)c1`, for which the figures for the EC50 with HCT-116 and in the data set on HT-29 were 17 µM and 21 µM, respectively. Further, the CC50 was 63 µM with FHC and 56 µM in data set [1]. The CC50 at 48 h in [2] was found to be 21 µM; in data set [3], 34 µM. For the same compound, the IC50 against E. coli GroEL/ES [4] is 2.8 µM; at E. coli GroEL/ES [6], 8.3 µM; against HSP60/HSP10 it was 6.7 µM; in [5] it was greater than 62.5 µM.
Consider `COc1c(Br)cccc1C(=O)Nc1ccc(Sc2nc3ccccc3s2)cc1`, for which the figures for the 50% effective concentration (EC50) in the data set with HCT-116, in the data set on DLD-1 and in the data set with HT-29 were 31 µM, 40 µM and 30 µM, respectively. The 50% cytotoxic concentration (CC50) at 48 h in data set [2] and in [3] was greater than 100 µM throughout. For the same compound, the IC50 in data set [5] is greater than 62.5 µM.
On to `O=S(=O)(Nc1ccc(-c2nc3cc(NS(=O)(=O)c4ccc(Br)cc4)ccc3o2)cc1)c1ccc(Br)cc1`, for which the EC50 is 11 µM with HCT-116 and 17 µM in the data set on HT-29. Moreover, in data set [1], the CC50 is greater than 100 µM. The CC50 at 48 h in data set [2] turned out to be 18 µM; in data set [3], 22 µM. Further, the concentration for half-maximal inhibition (IC50) against E. coli GroEL/ES [4] is 16 µM; against E. coli GroEL/ES [6], 34 µM; in [5], greater than 62.5 µM; in data set [7] it was greater than 100 µM.
